Test results: patent US7629332B2, “Nitrophenyl mustard and nitrophenylaziridine alcohols and their corresponding phosphates and their use as targeted cytotoxic agents” (Auckland Uniservices Limited, priority 2003, dated 2009)
Entries after “also recorded” stand apart in the source; their conditions may differ.

How the values were obtained:
in vivo = conditions: mouse
A549 (P450R+ve) = test: Cell proliferation (sulphorhodamine B) IC50, P450R-transfected A549 human lung cells, anoxia vs 20% O2; assay type: cell-based
[1] = test system: WiDr human colon carcinoma xenografts (90% NTR-ve and 10% NTR+ve); test: WiDr in vivo growth delay assay, mixed WiDr WT / WiDr NTR xenografts; conditions: single dose at MTD (750 μmol/kg), xenografts treated at 300 mm3
Source text: FIG. 2a depicts in vivo activity of compound IIb-7 and its corresponding phosphate pre-prodrug, Ib-7P, against human colon carcinoma xenografts grown by inoculating mixtures of 90% NTR−ve and 10% NTR+ve Wi Dr cells;
FIG. 2b are plots of % animals survival versus time (days), in which open circles denote wild-type WiDR human colon carcinoma xenografts, and filled circles denote tumours containing WiDr cells transfected with the E. coli NTR gene;
In the WiDr in vivo growth delay assay, xenografts containing mixtures of WiDr^WT and WiDr^NTR cells are grown to 300 mm^3 and treated with a single dose of prodrug at its MTD. Tumour growth is monitored over time and animals are euthanased when mean tumour volume >1600 mm^3. Data is presented as time to death.

WiDr (NTR+ve) = test: Cell proliferation (sulphorhodamine B) IC50, NTR-transfected WiDr human colon cells; assay type: cell-based
[2] = test system: SiHa human tumour xenografts; test: SiHa xenograft excision / clonogenic assay, with or without 15 Gy radiation; assay type: in vivo; conditions: 75% of MTD, single i.p. dose, no radiation, relative to vehicle controls, excision 18 h
Rif-1 tumour = test: In vivo excision assay with the Rif-1 tumour (15 Gy)
Procedure: FIG. 1b depicts an excision assay method: 300-500 mg Rif-1 xenograft→ 15 Gy→ Single prodrug dose @ MTD→ 18 hr→ excision→ disaggregate→ plate 10^2-10^5 cells→ 12 days→ colonies counted;
This employs an in vivo excision assay with the Rif-1 tumour, where the oxic tumour cells are sterilised using 15 Gy of radiation, and the cytotoxicity of an agent against the remaining hypoxic cells can be quantitated. […] Thus Ib-7P acts as a hypoxia-selective cytotoxin in vivo.

Row | SMILES | MTD (in vivo) [µmol/kg] | A549 (P450R+ve) 20% O2/anoxia IC50 Ratio (A549 (P450R+ve); 4 h, sensitivity ratio for hypoxia) | IC50 (A549 (P450R+ve); A549, 4 h drug exposure under 0% oxygen) [nM] | over-all survival [1] [%] | time to first treatment failure [1] [days] | WiDr WT:NTR IC50 Ratio (WiDr (NTR+ve); 4 h, sensitivity ratio for NTR expression) | IC50 (WiDr (NTR+ve); WiDr, 4 h drug exposure, growth 5 further days) [nM] | MTD (in vivo; CD-1 nude, ip) [µmol/kg] | Log kill, cmpd only, Mean ± sem [2] | Activity against hypoxic cells, Rif-1 excision assay (Rif-1 tumour; single dose at MTD after 15 Gy) | Activity against oxic tumour cells, Rif-1 excision assay (Rif-1 tumour; single dose at MTD without radiation)
1 | O=C(NCCO)c1cc([N+](=O)[O-])cc([N+](=O)[O-])c1N(CCBr)CCBr [IIb-7, 2-[Bis(2-Bromoethyl)Amino]-N-(2-Hydroxyethyl)-3,5-Dinitrobenzamide] | 1000 | 56 | 800 | 6 | 17 | 61 | 300 |  |  |  | 
2 | O=C(NCCOP(=O)(O)O)c1cc([N+](=O)[O-])cc([N+](=O)[O-])c1N(CCBr)CCBr [Ib-7P, 2-[[2-[Bis(2-Bromoethyl)Amino]-3,5-Dinitrobenzoyl]Amino]Ethyl Dihydrogen Phosphate] | 750 |  |  | 40 | 77 |  |  | 750 | 1.20 ± 0.07 | exceed that of its parent alcohol (IIb-7); also recorded: more active against hypoxic cells than the reference hypoxic cytotoxin tirapazamine | significant
